# Source: a melting point compilation (Tetko et al.)
row,melting point,Structure (SMILES)
1,146 to 148 °C,N#Cc1c(F)cccc1OCc1ccc(Cl)cc1
2,-10.6 °C,CCCCCCCOC(=O)CCCCCCC
3,300 °C,Nc1cccc(S(=O)(=O)O)c1
4,83 °C,CC(C)(C)c1cc(Br)cc(C(C)(C)C)c1O
5,194 °C,O=C1[C@@H](Oc2ccccc2)[C@@H](c2ccccc2)N1[C@@H](Sc1ccccc1)c1ccccc1
6,95 to 96 °C,Cc1noc(-c2cccc(Br)c2)n1
7,86 to 88 °C,CSc1ccc(C(F)(F)F)cc1NN
8,152 °C,CC(CCC(/C=N/NC(N)=O)C(C)C)C(=O)O (stereo unspecified)
9,16.5 °C,C[Si](C)(C)N(c1ccccc1)[Si](C)(C)C
10,240 °C,CSC[C@H](N)C(=O)O
11,76 to 80 °C,Cc1nc(-c2cccc(C=O)c2)cs1
12,88 to 89 °C,Cc1c(CO)cnn1-c1ccccc1
13,77 °C,COc1ccc(Cl)cc1C=O
14,8 to 9 °C,FC(F)(F)c1cnc(Cl)c(Cl)c1
15,46 °C,Cc1ccc(S(=O)(=O)OC2CCCCC2)cc1
16,98 °C,Nc1cc(Cl)ccc1S
17,184 °C,CCOC(=O)/C(=N\Nc1ccc([N+](=O)[O-])cc1)C(=O)C(F)(F)F
18,-70 °C,C1=COCCC1
19,106 to 108 °C,CSc1nn(-c2ccccc2)cc1C#N
20,35 to 39 °C,CCCCCCCCOc1ccc(N)cc1
21,90 °C,COc1cc(CCC(=O)O)ccc1O
22,219 °C,CC(=O)C1(O)CCC2C3C=C(C)C4=CC(=O)CCC4(C)C3CCC21C (stereo unspecified)

row,melting point,Structure (SMILES)
1,233 °C,Nc1ncnc(Nc2ccc(Cl)cc2)n1
2,158 °C,Cc1ccc(NC(=O)CC2C(=O)C3(C)CCC2C3(C)C)cc1 (stereo unspecified)
3,140 °C,CC(C)=CCCC(C)C1CCC2(C)C3=C(CCC12C)C1(C)CCC(O)C(C)(C)C1CC3 (stereo unspecified)
4,231 °C,O=C(O)c1ccc(C(=O)O)c(C(=O)O)c1
5,275 °C,Cc1cc(=O)oc2cc(O)c(O)cc12
6,34 °C,COc1ccc(Cl)cc1C
7,88 °C,CCNC(=O)C1CC(C)CCC1C(C)C (stereo unspecified)
8,-10 °C,CC(C)Nc1ccccc1
9,238 °C,NC(=O)/C(=N\Nc1cccnc1)c1nc2ccccc2s1
10,73 °C,Cc1cc(C)c2c(c1C)C(=O)C2
11,142 °C,COc1ccc2c(c1)C(=O)CC(c1ccccc1)O2 (stereo unspecified)
12,57 to 58 °C,Cc1cc(Cl)cc(Cl)c1N=C=S
13,190 to 193 °C,CCOC(=O)c1sc(SC)c2c1-c1ccccc1N(C)S2(=O)=O
14,114 to 115 °C,CC(C)(Br)C(=O)NC12CC3CC(CC(C3)C1)C2
15,78 °C,Cc1nn(Cc2ccccc2)c(N)c1C#N
16,65.5 °C,Cc1ccc(S(=O)(=O)C2(C(=O)OC(C)C)CC2)cc1
17,207 to 210 °C,O=C1OC(=O)c2ccc(Cl)c3cccc1c23
18,88 °C,Cc1ccccc1CC(=O)O
19,167 to 170 °C,O=C1C2C3C=CC(C3)C2C(=O)N1O (stereo unspecified)
20,33 °C,CCCCCCC(=O)CCCCCC
21,142 °C,C[N+](C)(C)CCOP(=O)([O-])OCC(O)CO (stereo unspecified)
22,152 °C,O=C1CCC(=O)C1

row,melting point,Structure (SMILES)
1,83 to 85 °C,N#CCOc1ccc(C2=NCCS2)cc1
2,129 °C,N#CC(=NO)c1ccccc1
3,-55 °C,CC1=CCC2CC1C2(C)C (racemic)
4,167 to 169 °C,Cc1cc2c(ccc3nonc32)nn1
5,115 °C,CNCCOC(=O)C=C1CCC2C(C(O)CC3C(C)(C(=O)OC)CCCC23C)C1C (stereo unspecified)
6,56 °C,CC1CC(OC(=O)C(O)c2ccccc2)CC(C)(C)C1 (stereo unspecified)
7,-78 °C,CCCCC(CC)COC(=O)CCCCCCCC(=O)OCC(CC)CCCC (stereo unspecified)
8,216 °C,C#CC1(OC(C)=O)CCC2C3CCC4=CC(=NO)CCC4C3CCC21CC (stereo unspecified)
9,163 °C,Cc1cccc(Nc2ccncc2S(=O)(=O)NC(=O)NC(C)C)c1
10,172 to 174 °C,Cc1cc(C)c(C(N)=O)c(N)n1
11,35 to 36 °C,CCOC(=O)CSc1ncc(C(=O)OC)n1C
12,118 °C,ClCc1nc(-c2ccc(OCc3ccc(Cl)cc3)cc2)no1
13,95 °C,O=C(CCC(O)c1ccccc1)c1ccccc1 (stereo unspecified)
14,57 to 63 °C,C=CC(O)COS(=O)(=O)c1ccc(C)cc1 (stereo unspecified)
15,122 °C,CCCCCCCCCCOc1c(OC)cc(C(N)=O)cc1OC
16,2.2 °C,CCOc1ccccc1[N+](=O)[O-]
17,214 °C,N#C/C(=N\Nc1cc(Cl)c(Cl)cc1Cl)c1nc2ccccc2s1
18,151 to 153 °C,CSC(S)=Nc1ccccc1C
19,175 °C,Cc1nc2ccccc2[nH]c(=O)c1=NNc1ccc(Cl)cc1
20,120 °C,CN(C)CCC(O)(c1ccccc1)c1ccccc1Cl (stereo unspecified)
21,153 to 154 °C,Cc1cccc(-n2cc[nH]c2=S)c1
22,56 °C,O=C(c1c(F)c(F)c(F)c(F)c1F)n1ccnc1

row,melting point,Structure (SMILES)
1,102 °C,CCNc1nc(Cl)nc(N(CC)CC)n1
2,201 to 202 °C,Cn1nc(C(F)(F)F)c(C(=O)O)c1Cl
3,-55 °C,CCCCCCOC(=O)CCCCC
4,220 °C,O=C1C=C(O)C(=O)C=C1O
5,63 to 64 °C,CCOC(=O)c1cc(-c2ccco2)n(C)n1
6,340 °C,Nc1nc(O)nc(C23CC4CC(CC(C4)C2)C3)n1
7,211 °C,CCOC(=O)c1nn(-c2ccc(C)cc2)c(C)c1C(=O)C1=NOC2C(=O)N(c3ccc(F)cc3)C(=O)C12 (stereo unspecified)
8,228 °C,CSc1c(C#N)c(N)nc2c(/N=N/c3ccc(F)cc3)c(N)nn12
9,124 °C,COc1c(OC)c(OC(C)=O)c2cc(C#N)ccc2c1OC(C)=O
10,32 °C,CC(=O)N1CCNCC1
11,244 °C,CC1=NC(=Cc2cccc3ccccc23)C(=O)O1
12,-6 °C,C=CC(C)(C)C(=O)O
13,61 °C,COc1cc(F)ccc1C=O
14,58 °C,c1ccc(Cc2ccc3ccccc3c2)cc1
15,20 °C,CCN(C)C(=O)COC(=O)c1ccccc1
16,22.1 °C,C1=CCC(c2ccncc2)CC1 (stereo unspecified)
17,69 to 73 °C,CCC1CC(O)CC(C)(C)N1O (stereo unspecified)
18,93.5 °C,CC(NNC(=O)c1ccccc1)c1ccccc1 (stereo unspecified)
19,110 °C,O=C(O)CSCCSCC(=O)O

row,Structure (SMILES),melting point
1,O=c1cc[nH]c(=O)o1,156 °C
2,COc1cc2c(c(O)c1OC)CCN(C)C2C (stereo unspecified),152 °C
3,Nc1cc(N)nc(N)n1,250 °C
4,O=[N+]([O-])c1ccc(C(Cl)=Cc2ccc(C=C(Cl)c3ccc([N+](=O)[O-])cc3[N+](=O)[O-])cc2)c([N+](=O)[O-])c1,245 °C
5,Clc1ccc2c(c1)Oc1ccccc1O2,88 °C
6,Nc1nonc1N,178 to 183 °C
7,Clc1cccc(CBr)c1Cl,29 to 32 °C
8,ClCCOCOCCCl,-32 °C
9,O=C1OC(=O)c2c(Br)c(Br)c(Br)c(Br)c21,275 °C
10,O=Cc1ccc(CBr)cc1,99 to 100 °C
11,CC(Cl)C(=O)Cl (stereo unspecified),-71 °C
